Our source for the IC50 values is US8729061B2, “Pyrrolidine derivatives” (Hoffmann-La Roche Inc., priority 2011, dated 2014).

Common to all, as to type: biochemical
In one experiment the target is human Cat K (Homo sapiens (Human), UniProt P43235). The experiment in a line: Cathepsin enzyme inhibition assay (fluorogenic peptide substrate), Cat K. The conditions noted are these: enzyme 1 nM, substrate Z-Leu-Arg-AMC 20 μM, pH 6.5. How it is done:
(§1) Enzyme activity is measured by observing the increase in fluorescence intensity caused by cleavage of a peptide substrate containing a fluorophore whose emission is quenched in the intact peptide.
(§2) Assay buffer: 100 mM potassium phosphate pH 6.5, EDTA-Na 5 mM, Triton X-100 0.001%, DTT 5 mM.
(§3) Enzymes (all at 1 nM): human and mouse Cathepsin S, Cat K, Cat B, Cat L. Substrate (20 μM): Z-Val-Val-Arg-AMC, except for Cat K which uses Z-Leu-Arg-AMC (both from Bachem).
(§4) Excitation 360 nm, Emission 465 nm.
(§5) Enzyme is added to the substance dilutions in 96-well microtitre plates and the reaction is started with substrate. […] IC50 are calculated by standard methods. Inhibition of human Cat S, mouse Cat S, human Cat K, mouse Cat K, human Cat B, mouse Cat B, human Cat L and mouse Cat L have been measured separately.

The target of another experiment is human Cat L (Homo sapiens (Human), UniProt P07711). The experiment is described as follows: Cathepsin enzyme inhibition assay (fluorogenic peptide substrate), Cat L. The conditions noted are these: enzyme 1 nM, substrate Z-Val-Val-Arg-AMC 20 μM, pH 6.5. The procedure: as §1, §2, §3, §4, §5
Chain of human Cat L (P07711 114-333): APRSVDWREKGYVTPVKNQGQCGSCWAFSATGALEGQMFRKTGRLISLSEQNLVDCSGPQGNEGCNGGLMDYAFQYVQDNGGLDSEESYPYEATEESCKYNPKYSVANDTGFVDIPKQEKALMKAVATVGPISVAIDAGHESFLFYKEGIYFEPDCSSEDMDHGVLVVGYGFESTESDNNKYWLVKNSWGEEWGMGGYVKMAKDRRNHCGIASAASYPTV
In a further experiment the target is human Cat B (Homo sapiens (Human), UniProt P07858). The experiment in a line: Cathepsin enzyme inhibition assay (fluorogenic peptide substrate), Cat B. The following applies: enzyme 1 nM, substrate Z-Val-Val-Arg-AMC 20 μM, pH 6.5. How it is done: as §1, §2, §3, §4, §5
The next experiment concerns the target human Cathepsin S (Homo sapiens (Human), UniProt P25774). The experiment is described as follows: Cathepsin enzyme inhibition assay (fluorogenic peptide substrate), Cat S. The following applies: enzyme 1 nM, substrate Z-Val-Val-Arg-AMC 20 μM, pH 6.5. How it is done: as §1, §2, §3, §4, §5

Chain of human Cathepsin S (P25774 115-331): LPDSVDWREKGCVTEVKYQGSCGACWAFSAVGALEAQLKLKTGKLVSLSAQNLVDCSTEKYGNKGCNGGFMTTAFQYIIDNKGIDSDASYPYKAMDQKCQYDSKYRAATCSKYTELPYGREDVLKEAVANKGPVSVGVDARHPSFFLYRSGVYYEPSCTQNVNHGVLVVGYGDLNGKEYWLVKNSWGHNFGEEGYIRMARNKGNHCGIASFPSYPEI
Chain of human Cat K (P43235 115-329): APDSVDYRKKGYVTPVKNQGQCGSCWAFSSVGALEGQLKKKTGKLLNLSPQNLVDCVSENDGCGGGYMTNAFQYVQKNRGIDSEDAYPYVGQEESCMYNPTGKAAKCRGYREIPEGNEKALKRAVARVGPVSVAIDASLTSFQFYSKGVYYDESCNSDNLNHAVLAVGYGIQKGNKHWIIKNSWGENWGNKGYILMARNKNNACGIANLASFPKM

A word on the IC50: it is the concentration that gives 50% inhibition. Low readings indicate higher potency, high ones lower potency. For the compound `O=C(NC1CC1)C(=O)[C@H](CC1CCCCC1)NC(=O)[C@@H]1C[C@@H](S(=O)(=O)c2ccccc2Cl)CN1C(=O)C1(c2ccc(Cl)cc2)CC1` [Example 30, (2S,4R)-1-(1-(4-chlorophenyl)cyclopropanecarbonyl)-4-(2-chlorophenylsulfonyl)-N—((S)-1-cyclohexyl-4-(cyclopropylamino)-3,4-dioxobutan-2-yl)pyrrolidine-2-carboxamide], the IC50 on human Cat K was 137 nM; at human Cat L, 23.4 nM; at human Cat B, 210 nM; against human Cathepsin S, 1.42 nM.
For the compound `CCCCNC(=O)C(=O)[C@H](CCC)NC(=O)[C@@H]1C[C@@H](S(=O)(=O)c2ccccc2Cl)CN1C(=O)C1(c2ccc(Cl)cc2)CC1` [Example 32, (2S,4R)—N—((S)-1-(butylamino)-1,2-dioxohexan-3-yl)-1-(1-(4-chlorophenyl)cyclopropanecarbonyl)-4-(2-chlorophenylsulfonyl)pyrrolidine-2-carboxamide], the IC50 is 24 nM against human Cat K, 7.7 nM against human Cat L, 29.4 nM on human Cat B and 0.734 nM on human Cathepsin S.
On the same counts, the results for `CC[C@H](NC(=O)[C@@H]1C[C@@H](S(=O)(=O)c2ccccc2Cl)CN1C(=O)C1(c2ccc(Cl)cc2)CC1)C(=O)C(=O)NCc1ccccc1` [Example 33, (2S,4R)—N—((S)-1-(benzylamino)-1,2-dioxopentan-3-yl)-1-(1-(4-chlorophenyl)cyclopropanecarbonyl)-4-(2-chlorophenylsulfonyl)pyrrolidine-2-carboxamide] are 52.9 nM, 13.6 nM, 77 nM and 1.11 nM.
The like results for `C[C@H](NC(=O)[C@@H]1C[C@@H](S(=O)(=O)c2ccccc2Cl)CN1C(=O)C1(c2ccc(Cl)cc2)CC1)C(=O)C(=O)NC1CC1` [Example 34, (2S,4R)-1-(1-(4-chlorophenyl)cyclopropanecarbonyl)-4-(2-chlorophenylsulfonyl)-N—((S)-4-(cyclopropylamino)-3,4-dioxobutan-2-yl)pyrrolidine-2-carboxamide] were, in that order, 444 nM, 28 nM, 399 nM and 0.787 nM.
On the same counts, the results for `CCC[C@H](NC(=O)[C@@H]1C[C@@H](S(=O)(=O)c2ccccc2Cl)CN1C(=O)C1(c2ccc(Cl)cc2)CC1)C(=O)C(=O)NCc1ccccc1` [Example 35, (2S,4R)—N—((S)-1-(benzylamino)-1,2-dioxohexan-3-yl)-1-(1-(4-chlorophenyl)cyclopropanecarbonyl)-4-(2-chlorophenylsulfonyl)pyrrolidine-2-carboxamide] are 21.5 nM, 9.8 nM, 31 nM and 1.21 nM.
Regarding `CCCC(C)NC(=O)C(=O)[C@H](CC)NC(=O)[C@@H]1C[C@@H](S(=O)(=O)c2ccccc2Cl)CN1C(=O)C1(c2ccc(Cl)cc2)CC1` (stereo partly drawn) [Example 36, (2S,4R)-1-(1-(4-chlorophenyl)cyclopropanecarbonyl)-4-(2-chlorophenylsulfonyl)-N-((3S)-1,2-dioxo-1-(pentan-2-ylamino)pentan-3-yl)pyrrolidine-2-carboxamide], the IC50 amounted to 155 nM against human Cat K, 16.5 nM against human Cat L, 350 nM at human Cat B and 0.776 nM against human Cathepsin S.
On the same counts, the results for `CCCC(C)NC(=O)C(=O)[C@H](CCC)NC(=O)[C@@H]1C[C@@H](S(=O)(=O)c2ccccc2Cl)CN1C(=O)C1(c2ccc(Cl)cc2)CC1` (stereo partly drawn) [Example 37, (2S,4R)-1-(1-(4-chlorophenyl)cyclopropanecarbonyl)-4-(2-chlorophenylsulfonyl)-N-((3S)-1,2-dioxo-1-(pentan-2-ylamino)hexan-3-yl)pyrrolidine-2-carboxamide] are 107 nM, 15.1 nM, 246 nM and 1.02 nM.
With `CC[C@H](NC(=O)[C@@H]1C[C@@H](S(=O)(=O)c2ccc(Cl)cc2Cl)CN1C(=O)C1(c2ccc(Cl)cc2)CC1)C(=O)C(=O)NC1CC1` [Example 38, (2S,4R)-1-(1-(4-chlorophenyl)cyclopropanecarbonyl)-N—((S)-1-(cyclopropylamino)-1,2-dioxopentan-3-yl)-4-(2,4-dichlorophenylsulfonyl)pyrrolidine-2-carboxamide], the IC50 came to 53.3 nM on human Cat K, 10.6 nM on human Cat L, 154 nM at human Cat B and 0.34 nM on human Cathepsin S.
On the same counts, the results for `CC[C@H](NC(=O)[C@@H]1C[C@@H](S(=O)(=O)c2ccc(F)cc2Cl)CN1C(=O)C1(c2ccc(Cl)cc2)CC1)C(=O)C(=O)NC1CC1` [Example 39, (2S,4R)-4-(2-chloro-4-fluorophenylsulfonyl)-1-(1-(4-chlorophenyl)cyclopropanecarbonyl)-N—((S)-1-(cyclopropylamino)-1,2-dioxopentan-3-yl)pyrrolidine-2-carboxamide] are 63.6 nM, 11.4 nM, 140 nM and 0.558 nM.
The like results for `CCC[C@H](NC(=O)[C@@H]1C[C@@H](S(=O)(=O)c2ccccc2Cl)CN1C(=O)C1(c2ccc(Cl)cc2)CC1)C(=O)C(=O)NCC(F)(F)F` [Example 40, (2S,4R)-1-(1-(4-chlorophenyl)cyclopropanecarbonyl)-4-(2-chlorophenylsulfonyl)-N—((S)-1,2-dioxo-1-(2,2,2-trifluoroethylamino)hexan-3-yl)pyrrolidine-2-carboxamide] were, in that order, 406 nM, 29.9 nM, 366 nM and 1.06 nM.
As to `CCC[C@H](NC(=O)[C@@H]1C[C@@H](S(=O)(=O)c2ccccc2Cl)CN1C(=O)C1(c2ccc(Cl)cc2)CC1)C(=O)C(=O)NC(C)C` [Example 41, (2S,4R)-1-(1-(4-chlorophenyl)cyclopropanecarbonyl)-4-(2-chlorophenylsulfonyl)-N—((S)-1-(isopropylamino)-1,2-dioxohexan-3-yl)pyrrolidine-2-carboxamide], the IC50 against human Cat K is 152 nM; against human Cat L, 11.7 nM; at human Cat B, 187 nM; at human Cathepsin S, 0.568 nM.
On to `CCC[C@H](NC(=O)[C@@H]1C[C@@H](S(=O)(=O)c2ccccc2Cl)CN1C(=O)C1(c2ccc(Cl)cc2)CC1)C(=O)C(=O)NCC` [Example 44, (2S,4R)-1-(1-(4-chlorophenyl)cyclopropanecarbonyl)-4-(2-chlorophenylsulfonyl)-N—((S)-1-(ethylamino)-1,2-dioxohexan-3-yl)pyrrolidine-2-carboxamide], for which the IC50 at human Cat K turned out to be 91.8 nM; at human Cat L, 13.6 nM; against human Cat B it was 108 nM; against human Cathepsin S, 0.779 nM.
On the same counts, the results for `CC[C@H](NC(=O)[C@@H]1C[C@@H](S(=O)(=O)c2ccc(O[C@@H](C)C(F)(F)F)cc2Cl)CN1C(=O)C1(c2ccc(Cl)cc2)CC1)C(=O)C(=O)NC1CC1` [Example 45, (2S,4R)-4-(2-chloro-4-((S)-1,1,1-trifluoropropan-2-yloxy)phenylsulfonyl)-1-(1-(4-chlorophenyl)cyclopropanecarbonyl)-N—((S)-1-(cyclopropylamino)-1,2-dioxopentan-3-yl)pyrrolidine-2-carboxamide] are 212 nM, 74.9 nM, 335 nM and 5.43 nM.
On the same counts, the results for `CCC[C@H](NC(=O)[C@@H]1C[C@@H](S(=O)(=O)c2ccc(O[C@@H](C)C(F)(F)F)cc2Cl)CN1C(=O)C1(c2ccc(Cl)cc2)CC1)C(=O)C(=O)NC1CC1` [Example 46, (2S,4R)-4-(2-chloro-4-((S)-1,1,1-trifluoropropan-2-yloxy)phenylsulfonyl)-1-(1-(4-chlorophenyl)cyclopropanecarbonyl)-N—((S)-1-(cyclopropylamino)-1,2-dioxohexan-3-yl)pyrrolidine-2-carboxamide] are 251 nM, 67.1 nM, 224 nM and 5.98 nM.
On the same counts, the results for `CCC[C@H](NC(=O)[C@@H]1C[C@@H](S(=O)(=O)c2ccccc2Cl)CN1C(=O)C1(c2ccc(Cl)cc2)CC1)C(=O)C(=O)N(C)C1CC1` [Example 47, (2S,4R)-1-(1-(4-chlorophenyl)cyclopropanecarbonyl)-4-(2-chlorophenylsulfonyl)-N—((S)-1-(cyclopropyl(methyl)amino)-1,2-dioxohexan-3-yl)pyrrolidine-2-carboxamide] are 998 nM, 283 nM, 1540 nM and 22.3 nM.
For `CCC[C@H](NC(=O)[C@@H]1C[C@@H](S(=O)(=O)c2ccc(F)cc2Cl)CN1C(=O)C1(c2ccc(Cl)cc2)CC1)C(=O)C(=O)NC1CC1` [Example 48, (2S,4R)-4-(2-chloro-4-fluorophenylsulfonyl)-1-(1-(4-chlorophenyl)cyclopropanecarbonyl)-N—((S)-1-(cyclopropylamino)-1,2-dioxohexan-3-yl)pyrrolidine-2-carboxamide], the IC50 at human Cat K turned out to be 35 nM; against human Cat L, 9.4 nM; against human Cat B it was 83.2 nM; against human Cathepsin S, 0.527 nM.
